Values quoted from earlier work, collected in patent US20240299301A1, “LIPID NANOPARTICLES AND METHOD FOR PREPARING SAME” (THERNA THERAPEUTICS, priority 2021, published 2024).

pKa of the amine group: about 6.5
Structure (SMILES): CCCCC/C=C\C/C=C\CCCCCCCCC(CCCCCCCC/C=C\C/C=C\CCCCC)OC(=O)CCCN(C)C [DLin-MC3-DMA, (6Z, 9Z, 28Z, 31Z)-heptatriaconta 6,9,28,31-tetraen-19-yl 4-(dimethylamino)butanoate]
